Source: ChEMBL document CHEMBL1201862, “PubChem BioAssay data set” (2004)
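In this assay, cells in 96-well plates receive the compound at five concentrations for 48 hours. Endpoints are linearly interpolated between the surrounding concentrations. At the GI50, growth is halved.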 Calls of active or inactive are those of the source. No stated cut-off is given here; in the data, active = GI50 up to about 1.1 µM and inactive = higher.

Tests used:
Experiment in all cases: inhibition of tumour cell growth, NCI panel, 48 h
[1] = tested on: 786-0
[2] = tested on: A498
[3] = tested on: BT-549
[4] = tested on: CAKI-1
[5] = tested on: HCT-15
[6] = tested on: HOP-62
[7] = tested on: KM12
[8] = tested on: LOX IMVI
[9] = tested on: MDA-MB-435
[10] = tested on: Malme-3M
[11] = tested on: NCI-H226
[12] = tested on: NCI/ADR-RES
[13] = tested on: OVCAR-3
[14] = tested on: PC-3
[15] = tested on: RPMI-8226
[16] = tested on: TK-10
[17] = tested on: UACC-257
[18] = tested on: UACC-62
[19] = tested on: SK-OV-3

Compound: NCCCN1CCN(c2ccccc2)CC1
- GI50 [1]: > 100 µM (inactive)
- GI50 [2]: > 100 µM (inactive)
- GI50 [3]: > 100 µM (inactive)
- GI50 [4]: > 100 µM (inactive)
- GI50 [5]: > 100 µM
- GI50 [6]: 10.9 µM (inactive)
- GI50 [7]: > 100 µM (inactive)
- GI50 [8]: > 100 µM (inactive)
- GI50 [9]: 51.2 µM (inactive)
- GI50 [10]: > 100 µM (inactive)
- GI50 [11]: > 100 µM (inactive)
- GI50 [12]: > 100 µM (inactive)
- GI50 [13]: 10.7 µM (inactive)
- GI50 [14]: 33.4 µM (inactive)
- GI50 [15]: > 100 µM (inactive)
- GI50 [16]: > 100 µM (inactive)
- GI50 [17]: > 100 µM (inactive)
- GI50 [18]: 70 µM (inactive)

Compound: Cc1n[nH]c(=O)n1/N=C/c1c[nH]c2ccccc12
- GI50 [1]: > 100 µM (inactive)
- GI50 [2]: > 100 µM (inactive)
- GI50 [3]: 38.4 µM (inactive)
- GI50 [4]: > 100 µM (inactive)
- GI50 [5]: > 100 µM
- GI50 [6]: > 100 µM (inactive)
- GI50 [7]: > 100 µM (inactive)
- GI50 [9]: > 100 µM (inactive)
- GI50 [10]: > 100 µM (inactive)
- GI50 [12]: > 100 µM (inactive)
- GI50 [13]: > 100 µM (inactive)
- GI50 [14]: > 100 µM (inactive)
- GI50 [15]: > 100 µM (inactive)
- GI50 [19]: > 100 µM (inactive)
- GI50 [17]: > 100 µM (inactive)
- GI50 [18]: > 100 µM (inactive)

Compound: CC(C)(C)OC(=O)NC(Cc1ccc(O)cn1)C(=O)O (centres undefined)
- GI50 [1]: > 100 µM (inactive)
- GI50 [2]: > 100 µM (inactive)
- GI50 [3]: > 100 µM (inactive)
- GI50 [4]: > 100 µM (inactive)
- GI50 [5]: > 100 µM
- GI50 [6]: > 100 µM (inactive)
- GI50 [7]: > 100 µM (inactive)
- GI50 [8]: > 100 µM (inactive)
- GI50 [9]: > 100 µM (inactive)
- GI50 [10]: > 100 µM (inactive)
- GI50 [11]: > 100 µM (inactive)
- GI50 [12]: > 100 µM (inactive)
- GI50 [13]: > 100 µM (inactive)
- GI50 [14]: > 100 µM (inactive)
- GI50 [15]: > 100 µM (inactive)
- GI50 [16]: > 100 µM (inactive)
- GI50 [17]: > 100 µM (inactive)

Compound: O=c1oc2ccc(Cl)cc2c2ccccc12
- GI50 [1]: 40.1 µM (inactive)
- GI50 [2]: 75.7 µM (inactive)
- GI50 [3]: 13.4 µM (inactive)
- GI50 [4]: 43 µM (inactive)
- GI50 [5]: > 100 µM
- GI50 [6]: 18.8 µM (inactive)
- GI50 [8]: > 100 µM (inactive)
- GI50 [9]: > 100 µM (inactive)
- GI50 [10]: > 100 µM (inactive)
- GI50 [11]: 27.5 µM (inactive)
- GI50 [12]: 84.1 µM (inactive)
- GI50 [13]: > 100 µM (inactive)
- GI50 [14]: > 100 µM (inactive)
- GI50 [15]: > 100 µM (inactive)
- GI50 [16]: 51.6 µM (inactive)
- GI50 [17]: > 100 µM (inactive)
- GI50 [18]: 71.6 µM (inactive)

Compound: Cc1ccc(/N=N/C(=N/c2ccccc2)c2ccc(N(CCC#N)CCC#N)cc2)cc1
- GI50 [1]: 37.8 µM (inactive)
- GI50 [2]: 45.4 µM (inactive)
- GI50 [3]: 13.2 µM (inactive)
- GI50 [4]: 55.5 µM (inactive)
- GI50 [5]: 44.8 µM
- GI50 [6]: 30.1 µM (inactive)
- GI50 [7]: 24.3 µM (inactive)
- GI50 [9]: 38 µM (inactive)
- GI50 [11]: 27.7 µM (inactive)
- GI50 [12]: > 100 µM (inactive)
- GI50 [13]: 20.1 µM (inactive)
- GI50 [14]: 17.9 µM (inactive)
- GI50 [15]: 39 µM (inactive)
- GI50 [19]: 30.8 µM (inactive)
- GI50 [16]: 27.2 µM (inactive)
- GI50 [17]: 19.3 µM (inactive)
- GI50 [18]: 21.8 µM (inactive)

Compound: O=NC1c2cccc3cccc(c23)C1N=O (centres undefined)
- GI50 [1]: 12.9 µM (inactive)
- GI50 [2]: 17.5 µM (inactive)
- GI50 [3]: 4.21 µM (inactive)
- GI50 [4]: 2.77 µM (inactive)
- GI50 [5]: 1.79 µM
- GI50 [6]: 5.26 µM (inactive)
- GI50 [7]: 3.89 µM (inactive)
- GI50 [8]: 1.59 µM (inactive)
- GI50 [9]: 4.78 µM (inactive)
- GI50 [12]: 2.39 µM (inactive)
- GI50 [13]: 2.69 µM (inactive)
- GI50 [14]: 10.1 µM (inactive)
- GI50 [15]: 8.17 µM (inactive)
- GI50 [19]: 11 µM (inactive)
- GI50 [16]: 10.2 µM (inactive)
- GI50 [17]: 12.9 µM (inactive)

Compound: C=CCC(CCC(C)=O)(C(=O)OCC)C(=O)OCC
- GI50 [1]: > 100 µM (inactive)
- GI50 [2]: > 100 µM (inactive)
- GI50 [3]: > 100 µM (inactive)
- GI50 [4]: > 100 µM (inactive)
- GI50 [5]: > 100 µM
- GI50 [6]: > 100 µM (inactive)
- GI50 [7]: > 100 µM (inactive)
- GI50 [9]: > 100 µM (inactive)
- GI50 [10]: > 100 µM (inactive)
- GI50 [11]: > 100 µM (inactive)
- GI50 [12]: > 100 µM (inactive)
- GI50 [13]: > 100 µM (inactive)
- GI50 [14]: > 100 µM (inactive)
- GI50 [15]: > 100 µM (inactive)
- GI50 [19]: > 100 µM (inactive)
- GI50 [16]: > 100 µM (inactive)
- GI50 [17]: > 100 µM (inactive)
- GI50 [18]: > 100 µM (inactive)
